Here are results for eleven molecules from patent US8153817B2, “Synthesis of methyl nonactate derivatives” (Ohio University, priority 2006, dated 2012).

For this assay, the system named is B. subtilis. Nature of the assay: MIC screen against B. subtilis. To be noted: Bacillus subtilis. In kind it is cell-based. On the procedure: In comparison ampicillin, which is an antibiotic in wide therapeutic use, has an MIC of 100 μM in this screen.
Setting [1] is: Table 1, selected triazoloamides, B. subtilis, read-out: MIC.

For orientation: MIC means the least concentration at which growth counts as inhibited.

Values after ≈ are worked out from the molar mass of the structure shown. Like-named read-outs stand apart in the source and are kept apart here.

`C[C@H](C(=O)NCCc1ccccc1)[C@@H]1CC[C@H](C[C@@H](C)n2cc(-c3ccccc3)nn2)O1`: the MIC under setting [1] is 250 µM (≈ 108 µg/mL).
Same read-out and setting: the value for `C[C@H](C(=O)Nc1ccccc1)[C@@H]1CC[C@H](C[C@@H](C)n2cc(CN3CCC(c4ccccc4)CC3)nn2)O1` was 500 µM (≈ 251 µg/mL); that for `C[C@@H](C(=O)N(C)Cc1ccccc1)[C@H]1CC[C@@H](C[C@H](C)n2cc(CN3CCN(c4ccccc4)CC3)nn2)O1` was 1000 µM (≈ 531 µg/mL); that for `COc1ccc(CNC(=O)[C@@H](C)[C@@H]2CC[C@H](C[C@@H](C)n3cc(CN4CCC(c5ccccc5)CC4)nn3)O2)cc1` was 1000 µM (≈ 546 µg/mL).
Take `COc1ccc(NC(=O)[C@@H](C)[C@@H]2CC[C@H](C[C@@H](C)n3cc(-c4ccccc4)nn3)O2)cc1`: the MIC under setting [1] turned out to be 1000 µM (≈ 435 µg/mL).
Still for that read-out and setting: next, `C[C@H](C(=O)NC1CCCC1)[C@@H]1CC[C@H](C[C@@H](C)n2cc(CN3CCN(c4ccccc4)CC3)nn2)O1`: 2000 µM (≈ 989 µg/mL); `C[C@H](C(=O)N1CCOCC1)[C@@H]1CC[C@H](C[C@@H](C)n2cc(CN3CCN(c4ccccc4)CC3)nn2)O1`: 2000 µM (≈ 993 µg/mL).
On the same count and under the same terms, the value for `C[C@H](C(=O)NC1CCCCC1)[C@@H]1CC[C@H](C[C@@H](C)n2cc(CN3CCN(c4ccccc4)CC3)nn2)O1` was 2000 µM (≈ 1020 µg/mL); that for `C[C@H](C(=O)N(C)C)[C@@H]1CC[C@H](C[C@@H](C)n2cc(-c3ccccc3)nn2)O1` was 4000 µM (≈ 1430 µg/mL).
On to `C[C@H](C(=O)N1CCN(c2ccccc2)CC1)[C@@H]1CC[C@H](C[C@@H](C)n2cc(CN3CCN(c4ccccc4)CC3)nn2)O1`, for which, under setting [1], the MIC is 4000 µM (≈ 2290 µg/mL).
As to `CC1(C)S[C@@H]2[C@H](NC(=O)[C@H](N)c3ccccc3)C(=O)N2[C@H]1C(=O)O` [ampicillin, reference compound], for the setting “B. subtilis (gram positive), read-out: MIC against B. subtilis”, the MIC was 100 µM (≈ 34.9 µg/mL).
